Test results: ChEMBL document CHEMBL5291721, “A preclinical secondary pharmacology resource illuminates target-adverse drug reaction associations of marketed drugs” (Nat Commun, 2023)

Legend:
[1] = biological target: T1, Alpha-1A adrenergic receptor (Homo sapiens, UniProt P35348); format: functional, cell-based
T1 sequence (P35348 whole entry): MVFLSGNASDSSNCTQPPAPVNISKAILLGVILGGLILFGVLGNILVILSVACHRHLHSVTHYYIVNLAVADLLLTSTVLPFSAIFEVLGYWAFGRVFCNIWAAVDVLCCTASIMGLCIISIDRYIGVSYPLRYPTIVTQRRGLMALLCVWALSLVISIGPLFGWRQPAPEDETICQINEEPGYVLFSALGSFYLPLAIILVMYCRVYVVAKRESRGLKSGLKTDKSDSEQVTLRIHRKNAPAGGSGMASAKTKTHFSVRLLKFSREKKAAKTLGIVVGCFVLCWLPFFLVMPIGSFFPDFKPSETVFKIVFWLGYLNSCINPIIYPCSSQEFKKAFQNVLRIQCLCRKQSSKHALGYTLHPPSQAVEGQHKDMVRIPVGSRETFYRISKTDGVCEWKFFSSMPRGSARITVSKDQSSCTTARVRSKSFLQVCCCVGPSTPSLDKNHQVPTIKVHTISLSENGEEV

Androgen receptor = biological target: T2, Androgen receptor (Homo sapiens, UniProt P10275)
T2 sequence (P10275 whole entry): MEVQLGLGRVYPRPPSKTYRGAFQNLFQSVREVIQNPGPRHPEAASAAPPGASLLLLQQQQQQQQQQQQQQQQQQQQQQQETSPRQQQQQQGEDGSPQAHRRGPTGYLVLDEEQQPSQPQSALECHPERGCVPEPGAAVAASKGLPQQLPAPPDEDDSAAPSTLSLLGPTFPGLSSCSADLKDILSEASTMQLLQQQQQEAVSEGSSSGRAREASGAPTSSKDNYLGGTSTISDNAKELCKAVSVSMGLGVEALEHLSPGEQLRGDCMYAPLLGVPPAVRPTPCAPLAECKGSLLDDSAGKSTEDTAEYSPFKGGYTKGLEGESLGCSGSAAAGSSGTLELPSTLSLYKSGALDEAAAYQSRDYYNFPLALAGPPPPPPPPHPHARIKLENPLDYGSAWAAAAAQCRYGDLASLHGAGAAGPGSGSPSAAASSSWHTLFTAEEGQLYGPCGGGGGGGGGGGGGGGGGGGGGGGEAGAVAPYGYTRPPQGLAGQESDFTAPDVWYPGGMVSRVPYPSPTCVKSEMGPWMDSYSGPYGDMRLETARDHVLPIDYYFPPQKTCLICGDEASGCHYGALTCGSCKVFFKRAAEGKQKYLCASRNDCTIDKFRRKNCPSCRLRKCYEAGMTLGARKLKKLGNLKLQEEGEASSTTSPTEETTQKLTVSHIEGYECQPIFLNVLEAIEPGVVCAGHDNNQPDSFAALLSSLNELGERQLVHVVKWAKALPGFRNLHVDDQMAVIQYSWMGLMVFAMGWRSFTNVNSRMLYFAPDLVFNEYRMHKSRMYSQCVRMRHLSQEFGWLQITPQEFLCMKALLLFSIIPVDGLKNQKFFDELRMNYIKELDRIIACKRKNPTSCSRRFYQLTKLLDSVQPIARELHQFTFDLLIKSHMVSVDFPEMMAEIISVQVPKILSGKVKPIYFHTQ

[2] = biological target: Gamma-aminobutyric acid receptor subunit alpha-1 (Rattus norvegicus, UniProt P62813)
Histamine H3 receptor = Histamine H3 receptor (Homo sapiens, UniProt Q9Y5N1)
[3] = biological target: T3, 5-hydroxytryptamine receptor 1A (Homo sapiens, UniProt P08908)
T3 sequence (P08908 whole entry): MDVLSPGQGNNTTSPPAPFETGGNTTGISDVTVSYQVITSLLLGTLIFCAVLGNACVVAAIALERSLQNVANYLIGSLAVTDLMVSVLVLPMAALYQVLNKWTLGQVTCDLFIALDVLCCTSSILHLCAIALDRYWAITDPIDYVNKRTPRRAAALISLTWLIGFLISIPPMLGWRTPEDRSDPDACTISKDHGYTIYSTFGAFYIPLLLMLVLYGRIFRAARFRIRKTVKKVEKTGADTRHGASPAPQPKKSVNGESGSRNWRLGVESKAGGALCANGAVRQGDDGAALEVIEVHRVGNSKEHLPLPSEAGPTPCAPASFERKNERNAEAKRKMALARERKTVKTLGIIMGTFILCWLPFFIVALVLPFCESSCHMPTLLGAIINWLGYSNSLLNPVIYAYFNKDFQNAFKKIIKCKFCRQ

[4] = biological target: T4, Amine oxidase [flavin-containing] A (Homo sapiens, UniProt P21397); format: functional
T4 sequence (P21397 whole entry): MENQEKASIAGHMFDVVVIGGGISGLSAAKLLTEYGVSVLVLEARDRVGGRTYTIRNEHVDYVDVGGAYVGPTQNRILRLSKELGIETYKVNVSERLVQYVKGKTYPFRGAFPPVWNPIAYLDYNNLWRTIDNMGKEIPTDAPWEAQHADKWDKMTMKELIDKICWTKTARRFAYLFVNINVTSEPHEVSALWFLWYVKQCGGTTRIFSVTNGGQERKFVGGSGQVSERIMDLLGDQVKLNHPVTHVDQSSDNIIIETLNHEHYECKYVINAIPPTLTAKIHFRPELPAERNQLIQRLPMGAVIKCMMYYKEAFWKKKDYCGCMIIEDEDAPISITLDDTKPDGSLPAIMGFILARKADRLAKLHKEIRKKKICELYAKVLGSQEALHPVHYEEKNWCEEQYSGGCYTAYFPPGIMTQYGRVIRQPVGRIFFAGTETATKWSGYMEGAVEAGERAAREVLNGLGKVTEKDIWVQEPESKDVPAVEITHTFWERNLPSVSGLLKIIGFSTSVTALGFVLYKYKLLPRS

[5] = biological target: cGMP-inhibited 3',5'-cyclic phosphodiesterase 3A (Homo sapiens, UniProt Q14432); format: functional
[6] = biological target: 3',5'-cyclic-AMP phosphodiesterase 4A (Homo sapiens, UniProt P27815); format: functional
[7] = biological target: Prostaglandin G/H synthase 1 (Homo sapiens, UniProt P23219); format: functional
[8] = biological target: Sodium-dependent noradrenaline transporter (Homo sapiens, UniProt P23975)
[9] = biological target: Sodium-dependent dopamine transporter (Homo sapiens, UniProt Q01959)
[10] = biological target: Sodium-dependent serotonin transporter (Homo sapiens, UniProt P31645)
[11] = biological target: Beta-1 adrenergic receptor (Homo sapiens, UniProt P08588); format: functional
[12] = biological target: Gamma-aminobutyric acid receptor subunit alpha-1/alpha-2/beta-2/gamma-2 (Homo sapiens, UniProt P14867+P18507+P47869+P47870); format: protein-complex assay
Note: assay procedure not described here.

Sequence of Sodium-dependent dopamine transporter (Q01959 whole entry): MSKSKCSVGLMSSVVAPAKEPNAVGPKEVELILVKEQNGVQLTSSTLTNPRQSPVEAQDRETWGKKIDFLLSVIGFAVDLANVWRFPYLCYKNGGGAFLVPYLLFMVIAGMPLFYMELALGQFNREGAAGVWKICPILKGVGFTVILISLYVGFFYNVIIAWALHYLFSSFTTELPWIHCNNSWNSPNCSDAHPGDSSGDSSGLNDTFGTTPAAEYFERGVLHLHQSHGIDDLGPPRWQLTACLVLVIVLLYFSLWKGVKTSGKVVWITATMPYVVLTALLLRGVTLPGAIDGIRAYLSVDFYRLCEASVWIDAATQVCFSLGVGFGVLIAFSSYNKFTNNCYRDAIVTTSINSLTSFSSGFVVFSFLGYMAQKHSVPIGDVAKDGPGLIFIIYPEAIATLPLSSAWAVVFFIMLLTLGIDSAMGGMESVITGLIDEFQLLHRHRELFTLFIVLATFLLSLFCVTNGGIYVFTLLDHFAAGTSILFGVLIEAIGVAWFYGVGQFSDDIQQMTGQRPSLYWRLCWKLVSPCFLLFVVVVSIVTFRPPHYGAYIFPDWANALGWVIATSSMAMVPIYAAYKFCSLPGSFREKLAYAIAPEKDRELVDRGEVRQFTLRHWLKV
Sequence of Sodium-dependent serotonin transporter (P31645 whole entry): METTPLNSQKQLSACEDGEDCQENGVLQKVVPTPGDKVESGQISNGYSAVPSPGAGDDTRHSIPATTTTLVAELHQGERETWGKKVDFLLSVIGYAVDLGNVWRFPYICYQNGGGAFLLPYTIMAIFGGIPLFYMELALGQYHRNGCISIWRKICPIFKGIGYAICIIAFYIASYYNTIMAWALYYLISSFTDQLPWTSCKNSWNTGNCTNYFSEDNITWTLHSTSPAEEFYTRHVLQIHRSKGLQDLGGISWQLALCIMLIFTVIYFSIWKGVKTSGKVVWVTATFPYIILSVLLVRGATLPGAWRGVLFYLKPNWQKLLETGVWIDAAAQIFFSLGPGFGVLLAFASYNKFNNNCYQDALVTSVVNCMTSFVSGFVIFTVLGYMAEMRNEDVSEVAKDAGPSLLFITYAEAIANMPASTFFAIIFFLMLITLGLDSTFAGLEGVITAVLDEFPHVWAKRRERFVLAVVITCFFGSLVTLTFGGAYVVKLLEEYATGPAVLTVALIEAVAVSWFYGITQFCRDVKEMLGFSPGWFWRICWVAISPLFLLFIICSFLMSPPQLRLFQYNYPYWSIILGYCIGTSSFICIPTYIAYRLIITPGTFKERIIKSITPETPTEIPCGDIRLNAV
Sequence of cGMP-inhibited 3',5'-cyclic phosphodiesterase 3A (Q14432 whole entry): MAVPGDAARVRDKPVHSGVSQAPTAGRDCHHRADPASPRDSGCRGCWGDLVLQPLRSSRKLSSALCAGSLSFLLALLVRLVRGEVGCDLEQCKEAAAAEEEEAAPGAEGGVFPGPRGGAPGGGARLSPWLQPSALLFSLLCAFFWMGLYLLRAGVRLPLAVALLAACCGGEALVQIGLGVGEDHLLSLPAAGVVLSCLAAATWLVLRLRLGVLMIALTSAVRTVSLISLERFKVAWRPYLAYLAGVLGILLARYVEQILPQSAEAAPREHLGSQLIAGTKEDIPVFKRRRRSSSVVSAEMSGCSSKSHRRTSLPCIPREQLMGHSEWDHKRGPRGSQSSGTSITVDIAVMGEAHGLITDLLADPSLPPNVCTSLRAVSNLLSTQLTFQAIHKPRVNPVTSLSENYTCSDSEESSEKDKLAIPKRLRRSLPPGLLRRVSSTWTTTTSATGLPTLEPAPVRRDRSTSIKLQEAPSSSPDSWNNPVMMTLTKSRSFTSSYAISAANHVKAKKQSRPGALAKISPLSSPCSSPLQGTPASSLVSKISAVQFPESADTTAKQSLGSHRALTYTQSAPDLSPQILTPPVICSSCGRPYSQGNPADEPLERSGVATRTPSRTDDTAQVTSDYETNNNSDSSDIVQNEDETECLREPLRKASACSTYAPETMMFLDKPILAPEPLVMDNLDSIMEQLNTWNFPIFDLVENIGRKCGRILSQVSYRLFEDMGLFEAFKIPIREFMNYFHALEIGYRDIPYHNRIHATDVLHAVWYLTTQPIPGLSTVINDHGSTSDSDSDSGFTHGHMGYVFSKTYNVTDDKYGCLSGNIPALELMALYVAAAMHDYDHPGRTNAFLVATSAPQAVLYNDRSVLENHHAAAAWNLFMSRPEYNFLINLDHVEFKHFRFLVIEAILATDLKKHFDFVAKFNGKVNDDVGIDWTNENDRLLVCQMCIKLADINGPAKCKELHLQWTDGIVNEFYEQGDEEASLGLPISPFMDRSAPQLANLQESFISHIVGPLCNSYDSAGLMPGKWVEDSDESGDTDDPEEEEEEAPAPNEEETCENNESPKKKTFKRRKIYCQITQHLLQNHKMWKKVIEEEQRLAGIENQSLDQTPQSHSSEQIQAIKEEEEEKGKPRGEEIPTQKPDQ
Sequence of Prostaglandin G/H synthase 1 (P23219 whole entry): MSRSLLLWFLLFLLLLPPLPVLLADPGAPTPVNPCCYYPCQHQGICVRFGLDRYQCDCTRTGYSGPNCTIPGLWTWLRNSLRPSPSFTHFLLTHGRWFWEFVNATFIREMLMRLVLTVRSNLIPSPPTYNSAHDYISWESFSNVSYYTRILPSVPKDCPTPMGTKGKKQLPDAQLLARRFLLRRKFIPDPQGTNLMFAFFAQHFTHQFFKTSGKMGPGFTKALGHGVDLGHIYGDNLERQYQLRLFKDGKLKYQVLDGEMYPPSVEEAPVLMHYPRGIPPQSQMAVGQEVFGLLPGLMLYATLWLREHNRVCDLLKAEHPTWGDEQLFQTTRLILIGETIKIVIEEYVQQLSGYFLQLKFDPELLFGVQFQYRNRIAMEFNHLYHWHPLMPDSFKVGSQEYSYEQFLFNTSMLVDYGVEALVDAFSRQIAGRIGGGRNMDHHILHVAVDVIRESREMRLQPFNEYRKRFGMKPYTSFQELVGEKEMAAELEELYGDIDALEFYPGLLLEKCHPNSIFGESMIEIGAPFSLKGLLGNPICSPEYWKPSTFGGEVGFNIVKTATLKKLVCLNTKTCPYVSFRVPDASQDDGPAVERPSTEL
Sequence of Gamma-aminobutyric acid receptor subunit alpha-1/alpha-2/beta-2/gamma-2 (P14867 whole entry): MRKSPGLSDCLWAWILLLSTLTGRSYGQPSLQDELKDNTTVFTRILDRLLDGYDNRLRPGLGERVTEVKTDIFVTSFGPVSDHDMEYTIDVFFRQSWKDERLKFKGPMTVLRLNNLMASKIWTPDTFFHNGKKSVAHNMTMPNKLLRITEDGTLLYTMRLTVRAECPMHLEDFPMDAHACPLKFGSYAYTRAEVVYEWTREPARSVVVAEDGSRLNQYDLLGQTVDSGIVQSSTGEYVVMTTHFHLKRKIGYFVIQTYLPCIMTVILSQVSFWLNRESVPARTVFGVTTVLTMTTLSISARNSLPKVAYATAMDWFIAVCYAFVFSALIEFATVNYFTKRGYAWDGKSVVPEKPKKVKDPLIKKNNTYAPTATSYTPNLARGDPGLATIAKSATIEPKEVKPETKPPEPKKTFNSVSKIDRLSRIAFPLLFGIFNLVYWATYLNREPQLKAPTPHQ
Sequence of Gamma-aminobutyric acid receptor subunit alpha-1/alpha-2/beta-2/gamma-2 (P47870 whole entry): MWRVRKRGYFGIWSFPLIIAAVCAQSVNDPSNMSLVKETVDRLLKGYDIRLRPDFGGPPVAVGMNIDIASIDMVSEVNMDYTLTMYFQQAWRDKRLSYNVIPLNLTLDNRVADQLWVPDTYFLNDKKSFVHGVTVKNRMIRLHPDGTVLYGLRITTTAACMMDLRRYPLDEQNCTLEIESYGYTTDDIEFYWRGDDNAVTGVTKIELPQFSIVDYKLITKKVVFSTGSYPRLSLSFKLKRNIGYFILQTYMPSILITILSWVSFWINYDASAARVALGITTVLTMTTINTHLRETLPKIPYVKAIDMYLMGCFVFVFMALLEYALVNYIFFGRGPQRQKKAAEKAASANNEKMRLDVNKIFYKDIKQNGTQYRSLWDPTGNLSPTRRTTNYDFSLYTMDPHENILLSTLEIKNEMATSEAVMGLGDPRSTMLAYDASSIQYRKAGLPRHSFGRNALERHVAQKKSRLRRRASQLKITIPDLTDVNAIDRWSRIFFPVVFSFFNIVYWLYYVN
Sequence of Gamma-aminobutyric acid receptor subunit alpha-1/alpha-2/beta-2/gamma-2 (P18507 whole entry): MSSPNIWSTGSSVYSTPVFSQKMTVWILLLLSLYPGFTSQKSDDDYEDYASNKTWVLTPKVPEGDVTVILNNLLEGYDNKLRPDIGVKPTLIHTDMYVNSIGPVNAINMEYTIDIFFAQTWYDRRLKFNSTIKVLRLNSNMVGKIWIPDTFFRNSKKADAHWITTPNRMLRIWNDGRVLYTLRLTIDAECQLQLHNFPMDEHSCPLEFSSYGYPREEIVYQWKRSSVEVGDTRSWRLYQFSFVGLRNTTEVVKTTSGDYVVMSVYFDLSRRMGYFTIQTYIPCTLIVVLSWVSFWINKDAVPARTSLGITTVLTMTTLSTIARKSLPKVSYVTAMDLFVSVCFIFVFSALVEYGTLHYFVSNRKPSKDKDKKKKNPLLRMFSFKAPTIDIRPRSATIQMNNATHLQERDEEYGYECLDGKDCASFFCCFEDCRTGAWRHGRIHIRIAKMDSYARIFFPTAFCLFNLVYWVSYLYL
Sequence of Gamma-aminobutyric acid receptor subunit alpha-1/alpha-2/beta-2/gamma-2 (P47869 whole entry): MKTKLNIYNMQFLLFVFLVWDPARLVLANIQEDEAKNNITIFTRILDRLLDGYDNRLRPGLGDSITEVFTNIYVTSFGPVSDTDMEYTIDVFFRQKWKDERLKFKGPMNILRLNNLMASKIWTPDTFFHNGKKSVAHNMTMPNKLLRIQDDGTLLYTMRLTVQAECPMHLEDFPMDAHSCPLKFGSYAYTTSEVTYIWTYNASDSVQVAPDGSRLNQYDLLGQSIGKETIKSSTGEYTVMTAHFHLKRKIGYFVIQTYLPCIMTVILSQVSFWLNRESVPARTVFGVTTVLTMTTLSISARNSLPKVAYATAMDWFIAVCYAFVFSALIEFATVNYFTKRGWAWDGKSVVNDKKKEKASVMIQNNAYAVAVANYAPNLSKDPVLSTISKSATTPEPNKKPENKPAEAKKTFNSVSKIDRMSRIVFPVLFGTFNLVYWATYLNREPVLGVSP

SMILES | AC50 [1] | AC50 (Androgen receptor) | AC50 [2] | AC50 (Histamine H3 receptor) | AC50 [3] | AC50 [4] | AC50 [5] | AC50 [6] | AC50 [7] | AC50 [8] | AC50 [9] | AC50 [10] | AC50 [11] | AC50 [12]
O=C(Oc1ccc2c(c1)CCCN2C(=O)C(Cl)Cl)c1ccco1 [QUINFAMIDE] | > 30 µM | > 30 µM | > 30 µM | > 30 µM | > 30 µM | > 30 µM | > 30 µM | > 30 µM | > 30 µM | > 30 µM | > 30 µM | > 30 µM | – | –
O=C(Nc1ccc(Cl)cc1)Nc1ccc(Cl)c(Cl)c1 [TRICLOCARBAN] | > 30 µM | > 30 µM | > 30 µM | > 30 µM | > 30 µM | > 30 µM | 11.6 µM | 25.4 µM | > 30 µM | 0.863 µM | > 10 µM | > 30 µM | – | –
CC[C@@H](C(N)=O)N1CCCC1=O | > 30 µM | – | – | > 30 µM | > 30 µM | > 30 µM | > 30 µM | > 30 µM | > 30 µM | > 30 µM | > 30 µM | > 30 µM | > 30 µM | > 30 µM
CCCCS(=O)(=O)N[C@@H](Cc1ccc(OCCCCC2CCNCC2)cc1)C(=O)O [TIROFIBAN] | > 30 µM | > 30 µM | > 30 µM | > 30 µM | > 30 µM | > 30 µM | > 30 µM | > 30 µM | > 30 µM | > 30 µM | > 30 µM | 9.96 µM | – | –
CC(C)(C)CC(C)(C)c1ccc(O)c(Cc2ccc(Cl)cc2Cl)c1 [CLOFOCTOL] | > 30 µM | 14.9 µM | > 30 µM | > 30 µM | > 30 µM | > 30 µM | 5.81 µM | 5.93 µM | 29.2 µM | 3.4 µM | 3.54 µM | 5.43 µM | – | –
Nc1ccc(S(=O)(=O)c2cnc(N)s2)cc1 [THIAZOLSULFONE] | > 30 µM | > 30 µM | > 30 µM | > 30 µM | > 30 µM | > 30 µM | > 30 µM | > 30 µM | > 30 µM | > 30 µM | 24.3 µM | > 30 µM | – | –
CC[C@H]1CN2CC[C@H]1C[C@H]2[C@H](O)c1ccnc2ccc(OC)cc12 [HYDROQUININE] | > 30 µM | > 30 µM | > 30 µM | > 30 µM | > 30 µM | > 30 µM | > 30 µM | > 30 µM | > 30 µM | > 30 µM | 29.1 µM | 3.95 µM | – | –
CC(CNC(=O)c1ccccc1)C(=O)OCC(=O)[C@@]12OC(C)(C)O[C@@H]1C[C@H]1[C@@H]3CCC4=CC(=O)C=C[C@]4(C)[C@@]3(F)[C@@H](O)C[C@@]12C (stereo partly specified) [TRIAMCINOLONE BENETONIDE] | > 30 µM | > 30 µM | > 30 µM | > 30 µM | > 30 µM | > 30 µM | > 30 µM | > 30 µM | > 30 µM | > 30 µM | > 30 µM | > 30 µM | – | –
Nc1ccncc1N [AMIFAMPRIDINE] | > 30 µM | – | > 30 µM | > 30 µM | > 30 µM | > 30 µM | > 30 µM | > 30 µM | > 30 µM | > 30 µM | > 30 µM | > 30 µM | – | > 30 µM
CC(=O)OCC(=O)[C@@]1(O)CC[C@H]2[C@@H]3CCC4=CC(=O)C=C[C@]4(C)[C@@]3(Cl)[C@@H](Cl)C[C@@]21C [DICHLORISONE ACETATE] | > 30 µM | 0.128 µM | > 30 µM | > 30 µM | > 30 µM | > 30 µM | > 30 µM | > 30 µM | > 30 µM | > 30 µM | > 30 µM | > 30 µM | – | –
CCOc1ccc(Cc2cc([C@@H]3O[C@H](CO)[C@@H](O)[C@H](O)[C@H]3O)ccc2Cl)cc1 [DAPAGLIFLOZIN] | > 30 µM | > 30 µM | > 30 µM | > 30 µM | > 30 µM | > 30 µM | > 30 µM | > 30 µM | > 30 µM | > 30 µM | > 30 µM | – | > 10 µM | –
Nc1nc2nc[nH]c2c(=S)[nH]1 [THIOGUANINE] | > 30 µM | > 30 µM | > 30 µM | > 30 µM | > 30 µM | > 30 µM | > 30 µM | > 30 µM | 1.32 µM | > 30 µM | > 30 µM | – | – | –
C=CCN1C[C@H](C(=O)N(CCCN(C)C)C(=O)NCC)C[C@@H]2c3cccc4[nH]cc(c34)C[C@H]21 [CABERGOLINE] | 0.142 µM | – | – | > 30 µM | 0.0083 µM | > 30 µM | > 30 µM | > 30 µM | > 30 µM | 29.6 µM | 4.64 µM | > 30 µM | > 10 µM | > 30 µM
CC[C@]1(O)C[C@H]2CN(CCc3c([nH]c4ccccc34)[C@@](C(=O)OC)(c3cc4c(cc3OC)N(C=O)[C@H]3[C@@](O)(C(=O)OC)[C@H](OC(C)=O)[C@]5(CC)C=CCN6CC[C@]43[C@@H]65)C2)C1 [VINCRISTINE] | > 30 µM | > 30 µM | > 30 µM | > 30 µM | > 30 µM | > 30 µM | > 30 µM | > 30 µM | 5.73 µM | > 30 µM | > 30 µM | – | – | –
